The text below walks through data of article PMC9738927, “A Newly Identified Monoterpenoid-Based Small Molecule Able to Support the Survival of Primary Cultured Dopamine Neurons and Alleviate MPTP-Induced Toxicity In Vivo” (Molecules, 2022).

Molecules are shown by their SMILES. Bounds are passed on as bounds.

The subject of one data set is CD-1 female mice. Description: Maximum tolerated dose and LD50 (acute oral toxicity). The class given is in vivo. On the procedure: (§1) Healthy animals were randomly divided into groups of four males or four females each. After a 3–4 h starvation, animals were administered 100, 150, 200, or 500 mg/kg PA96 solution (prepared by dissolution in saline containing 0.5% Tween 80) or the vehicle […]. Food was provided for approximately 1–2 h after administration. All mice were continuously monitored for changes in weight, breathing, ptosis, gait disturbance, tremor, and mortality 1 h after administration of PA96 and every 6 h after that. The day of dosing was designated as day 0, and animals were observed until day 14. Each mouse was weighed on days 0, 1, 3, 7, and 14.
(§2) The arithmetic method of Kerber was used to determine the lethal dose fifty (LD50) that killed 50% of studied animals with PA96.
(§3) The LD50 value was determined according to the following equation [24]:LD50 = LD100 − ∑ (z × d)/m(1) where LD50—dose capable of killing 50% of animals; LD100—dose capable of killing 100% of animals; z—half the sum of the number of animals in the experiments with the test of two following doses; d—the difference between two successive doses of administrative PA96; m—total number of animals in each group.

Test in data set [1]: as above
The class given is in vivo. Conditions: female, CD-1, mouse, in vivo, po. The method, then:
as §1, §2, §3

Data set [2] has as its system haloperidol-induced catalepsy. Briefly: Haloperidol-induced catalepsy, parallel bars test. The class given is in vivo, male Wistar rats. Conditions: 1, 10, 20 mg/kg per os, haloperidol 1.5 mg/kg i.p. On the procedure:
Neuroleptic-induced catalepsy has long been used as an animal model for screening drugs for parkinsonism, as described before. Adult male Wistar rats were divided into four groups, each containing six animals. Group 1 received haloperidol 1.5 mg/kg in normal saline and served as the cataleptic control without any drug treatment. The studied compound PA96 was dissolved in saline containing 0.5% Tween 80 just before use. Groups 2, 3, and 4 received PA-96 in a dose of 1, 10, or 20 mg/kg per os accordingly; 10 min after the PA96 administration, catalepsy was induced by the intraperitoneal administration of haloperidol in a dose of 1.5 mg/kg body weight in normal saline. All the behavioral studies were performed at room temperature in a calm room without external interference. The severity of catalepsy was measured 30, 60, 120, 180, and 240 min after haloperidol administration using the method of parallel bars. The fore and hind limbs of a rat were placed on parallel bars (walls) to ensure that the animal’s back was straight, and the time spent by the animal in an immobilized state was recorded. The general duration of catalepsy and the percentage of cataleptic animals in the group were evaluated.

Broadly, the LD50 is the dose expected to kill half of the subjects tested. Low readings indicate greater toxicity, high ones lower toxicity. One may read the MTD as the highest dose tested that stayed within the study's limit of toxicity. A low value points to poorer tolerability.

`C=C(C)[C@@H]1CC=C(C)[C@@H](Sc2nc[nH]n2)[C@@H]1O` [PA96, (1R,2R,6S)-2-(1H-1,2,4-triazol-3-ylthio)-3-methyl-6-(prop-1-en-2-yl)cyclohex-3-enol]: in the data set on CD-1 female mice (female, CD-1, mouse, in vivo, 14 days), the “MTD relative to the effective dose” value was 100 fold. Moreover, the “dose at which abnormal clinical signs were observed (piloerection, decreased motor activity, ptosis, gait disturbance)” value in the data set with CD-1 female mice (female, CD-1, mouse, in vivo, po, 14 days) is listed as at least 150 mg/kg. Besides, in the data set on CD-1 female mice (mouse, in vivo), the hazard category result is reported as “Category III (slightly hazardous)”. Also, the “therapeutic dose lower than LD50” value in the data set on CD-1 female mice (therapeutic dose vs LD50) is “at least 100 times”. In addition, in data set [1], the 50% lethal dose (LD50) at 14 days amounted to 234 mg/kg and the MTD at 14 days came to 100 mg/kg. Besides, in data set [2], the catalepsy time entry is “significantly decreased” and the “percentage of cataleptic animals” value was “significantly decreased”.
